Test results from patent US5607967A, “Treatment of alzheimer's disease with 5-(tetradecyloxy)-2-furan carboxylic acid” (Merck & Co., Inc., priority 1994, dated 1997).
“And” between values parts separate entries of the source, which are not always exact repeats. Equal values may be shown once.

Columns and labels:
PC12 cells [1] = experiment: Neurite differentiation of PC12 cells; type: cell-based; conditions: TOFA alone, without NGF
PC12 cells [2] = experiment: Neurite differentiation of PC12 cells; type: cell-based; conditions: for % Cells Bearing Neurites / Average length of neurites: 4 days, mean ±SEM
Method: To further study the influence of TOFA on the nervous system, we tested the effect of TOFA on the differentiation of PC12 cells. PC12 cells were plated at a density of approximately 100-200/mm^2 on collagen coated plates or dishes in RPMI medium supplemented with 10% horse serum, 5% fetal calf serum, […] streptomycin, 50 U/mL penicillin in a water saturated atmosphere of 95% air and 5% CO2, at 37° C. overnight. Medium was replaced with fresh RPMI containing 1.5% serum, 100 ng/mL NGF and the indicated concentration of TOFA or an equivalent volume of vehicle (DMSO) giving a final concentration of 0.1% DMSO.
At different time points during the treatment, cells were photographed or fixed with 10% formalin. Morphology was examined after four days of treatment with TOFA or vehicle (DMSO). The number of cells beating neurites and average length of neurites were determined with the aid of the Bioquant imaging system. […] However, as depicted in Table 6 below, NGF alone induced a 15% increase in the number of cells bearing neurites and these outgrowths reached a mean length of 20 μm. Treatment with NGF and TOFA increased the percentage of cells beating neurites to 78%. Maximal neurite generation is observed at a concentration of 10 μM TOFA.
Cells were treated with vehicle (0.1% DMSO) or various concentrations of TOFA in the presence of 100 ng/mL NGF for 4 days, and then fixed with 10% formalin. At least eighty cells from eight wells were analyzed in each group. The results are shown as the mean ±SEM. ^a p<0.01, versus vehicle by Dunnetts test.

GR/NUC chimeric receptor = molecular target: T1, GR/NUC chimeric receptor (Homo sapiens, UniProt Q03181); experiment: Ligand dependent transcription assay, GR/NUC chimeric receptor with MMTV-luciferase reporter; type: cell-based
T1 construct: transfected cells, MMTV-luciferase
T1 sequence (Q03181 1-441): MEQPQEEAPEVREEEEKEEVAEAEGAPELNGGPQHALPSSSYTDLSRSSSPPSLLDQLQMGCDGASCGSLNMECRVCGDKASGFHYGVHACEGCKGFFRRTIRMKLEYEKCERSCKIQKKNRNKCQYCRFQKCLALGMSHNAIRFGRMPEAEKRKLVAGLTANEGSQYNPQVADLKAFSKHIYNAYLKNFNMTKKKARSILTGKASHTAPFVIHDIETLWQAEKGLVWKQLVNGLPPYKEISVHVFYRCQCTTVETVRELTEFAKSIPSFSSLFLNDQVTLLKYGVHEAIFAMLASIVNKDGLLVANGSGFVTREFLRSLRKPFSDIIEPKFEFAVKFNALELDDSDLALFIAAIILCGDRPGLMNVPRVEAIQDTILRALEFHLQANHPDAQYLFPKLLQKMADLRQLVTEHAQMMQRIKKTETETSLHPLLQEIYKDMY
T1 sequence (P06537 1-792 partner): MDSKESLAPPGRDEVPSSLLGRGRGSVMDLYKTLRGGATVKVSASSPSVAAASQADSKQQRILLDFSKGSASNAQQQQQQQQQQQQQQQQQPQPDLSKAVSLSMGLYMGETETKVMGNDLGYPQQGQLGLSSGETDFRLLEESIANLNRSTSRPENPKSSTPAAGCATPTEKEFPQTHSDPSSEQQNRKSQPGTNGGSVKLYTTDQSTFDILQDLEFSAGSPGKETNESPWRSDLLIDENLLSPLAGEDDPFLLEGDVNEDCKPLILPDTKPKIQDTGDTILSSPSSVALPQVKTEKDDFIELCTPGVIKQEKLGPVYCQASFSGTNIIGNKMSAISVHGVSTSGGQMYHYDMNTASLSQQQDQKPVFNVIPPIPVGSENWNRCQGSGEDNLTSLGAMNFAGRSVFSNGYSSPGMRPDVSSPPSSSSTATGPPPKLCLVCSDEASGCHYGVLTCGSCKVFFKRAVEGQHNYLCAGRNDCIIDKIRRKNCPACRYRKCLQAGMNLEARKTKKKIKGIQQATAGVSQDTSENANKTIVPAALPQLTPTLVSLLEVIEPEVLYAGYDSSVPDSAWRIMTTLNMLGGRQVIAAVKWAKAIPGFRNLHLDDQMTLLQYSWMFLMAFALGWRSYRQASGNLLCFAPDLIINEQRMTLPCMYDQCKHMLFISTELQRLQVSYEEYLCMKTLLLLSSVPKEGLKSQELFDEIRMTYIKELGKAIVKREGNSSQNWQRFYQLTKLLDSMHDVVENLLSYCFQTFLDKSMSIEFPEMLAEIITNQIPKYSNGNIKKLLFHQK
Method: Similar hybrid receptors GR/NER, GR/NUC and GR/PPAR, in identical expression plasmid backgrounds were prepared essentially as described for the construction of the GR/mPPAR and GR/NUC chimeric receptors in Schmidt et al., "Identification of a new member of the steroid hormone receptor superfamily that is activated by a peroxisome proliferator and fatty acids," Mol. Endocrinol., 6(10):1634-41, 1992, and in Boie et al., "Enantioselective activation of the peroxisome proliferator-activated receptor", J. Biol. Chem. 268(8):5530-4, 1993.
Briefly, the amino terminal portion of the mouse glucocorticoid receptor (mGR), that includes the DNA binding domain was fused to the putative ligand binding domains of the nuclear receptor NER, hNUC-I (Schmidt et al., 1992), mPPAR (Issenmann and Green, 1990) to form the respective chimeric receptors GR/NER, GR/NUC and GR/PPAR. The GR/NER chimeric receptor was constructed as described for the GR/NUC and GR/PPAR hybrid receptors (Schmidt et al., 1992; Boie et al). The cDNA sequences coding for amino acids Arg^155 and Glu^156 of the NER receptor were converted to the Xho I restriction site, that was later used for the ligation to the GR cDNA sequences that coded for the DNA binding domain. Thus, converting amino acid residues Arg^155 and Glu^156 of NER receptor to amino acid residues Ser^155 and His^156.

acetyl-CoA carboxylase = conditions: high doses, i.e. 0.15% of diet; cited from earlier work
[3] = read-out: Fold of stimulation GR/NUC

With CCCCCCCCCCCCCCOc1ccc(C(=O)O)o1 [TOFA, 5-(tetradecyloxy)-2-furan carboxylic acid] the “Neurite outgrowth” value (PC12 cells [1]) was “did not induce neurite outgrowth”, the “% Cells Bearing Neurites” value (PC12 cells [2]; 0.1 μM TOFA with 100 ng/mL NGF) was 14.27 ± 3.51% and the “Average length of neurites” value (PC12 cells [2]; 0.1 μM TOFA with 100 ng/mL NGF) was 23.67 ± 2.86 μm. The “% Cells Bearing Neurites” value (PC12 cells [2]; 1.0 μM TOFA with 100 ng/mL NGF) was 24.07 ± 3.06%, the “Average length of neurites” value (PC12 cells [2]; 1.0 μM TOFA with 100 ng/mL NGF) was 28.63 ± 3.92 μm and the “% Cells Bearing Neurites” value (PC12 cells [2]; 10 μM TOFA with 100 ng/mL NGF) was 78% and 78.39 ± 4.89%. For the same compound, the “Average length of neurites” value (PC12 cells [2]; 10 μM TOFA with 100 ng/mL NGF) was 32.43 ± 2.38 μm, the “Concentration of maximal neurite generation” value (PC12 cells [2]; with 100 ng/mL NGF) was 10 µM and the “Expression mediated by GR/NUC” value (GR/NUC chimeric receptor) was “stimulated expression”. It also gave a fold induction at 2 µM (GR/NUC chimeric receptor; [3]) of 1.95 ± 0.14, a fold induction at 10 µM (GR/NUC chimeric receptor; [3]) of 2.85 ± 0.2 and a fold induction at 50 µM (GR/NUC chimeric receptor; [3]) of 3.19 ± 0.2. For the same compound, the “Fatty acid synthesis in vivo” value (acetyl-CoA carboxylase) was “inhibit fatty acid synthesis”.
